The record followed here is EP0084597A1, “Triazole and imidazole derivatives and pharmaceutical preparations containing them” (BAYER AG, priority 1981, dated 1983).

In experiment [1] the test system is Candida albicans. Nature of the experiment: Antimycotic in-vitro activity, serial dilution test (MIC). It is filed as cell-based. The note with it: meat extract-glucose broth, 20°C, 24 to 96 hours, inoculum 5 x 10^4 germs/ml; for MIC: Candida albicans, read-out: MHK-Werte in γ/ml Nährmedium, Candida albicans. The protocol: (§1) Die in-vitro-Prüfungen wurden im Reihenverdünnungstest mit Keiminokula von durchschnittlich 5 x 10^4 Keimen/ml Substrat durchgeführt. Als Nährmedium dienten • a) für Dermatophyten und Schimmelpilze: Sabourand's milieu d'epreuve • b) für Hefen: Fleischextrakt-Traubenzucker-Bouillon.
(§2) Die Bebrütungstemperatur betrug 20°C, die Bebrütungsdauer lag bei 24 bis 96 Stunden bei Hefen und 96 Stunden bei Dermatophyten und Schimmelpilzen.

Experiment [2] has as its system Torulopsis glabrata. Described as above. The note with it: meat extract-glucose broth, 20°C, 24 to 96 hours, inoculum 5 x 10^4 germs/ml; for MIC: Nakaseomyces glabratus, read-out: MHK-Werte in γ/ml Nährmedium, Torulopsis glabrata. Format: cell-based. The protocol:
as §1, §2

Experiment [3] concerns Microsporum canis. The experiment is described as above. It is filed as cell-based. The note with it: Sabouraud medium, 20°C, inoculum 5 x 10^4 germs/ml; for MIC: Microsporum canis, 96 h, read-out: MHK-Werte in γ/ml Nährmedium, Microsporum canis. Here is the method: as §1, §2
The test system of experiment [4] is Trichophyton mentagrophytes. The experiment in a line: Antimycotic in-vivo activity (local) in experimental guinea pig trichophytosis. Further details: species or system Meerschweinchen; key to Wirkung: +++++: sehr gute Wirkung = keine Infektionszeichen am 12.-15.Tag p.i.; ++++: gute Wirkung = geringe Rötung, vereinzelt Schuppen; +++: Wirkung = Rötung, Schuppung, ohne Haarausfall; ++: schwache Wirkung = Rötung, Schuppung, Haarausfall; +: Spur Wirkung = flächiger Haarausfall, entzündliche Hautreaktion. The settings on record: for Wirkungen: local treatment; for Wirkung: local treatment 1x daily from day 3 p.i. with a 15% solution in dimethylsulfoxide : glycerol = 1 : 4, signs of infection day 12-15 p.i.

Experiment [5] concerns Candida-Zellen. The experiment in a line: Antimycotic in-vivo activity (oral) in mouse candidosis. Set-up: species or system Mäuse vom Typ SPF-CF1; key: +++++: sehr gute Wirkung = 90 % Ueberlebende am 6.Tag p.i.; ++++: gute Wirkung = 80 % Ueberlebende am 6.Tag p.i.; +++: Wirkung = 60 % Ueberlebende am 6.Tag p.i.; ++: schwache Wirkung = 40 % Ueberlebende am 6.Tag p.i.; +: Spur Wirkung; k.W.: keine Wirkung. The protocol: Mäuse vom Typ SPF-CF1 wurden intravenös mit 1 - 2 x 10^6 logarithmisch wachsenden Candida-Zellen, die in physiologischer Kochsalzlösung suspendiert werden, infiziert. Eine Stunde vor und sieben Stunden nach der Infektion werden die Tiere mit jeweils 50 - 100 mg/kg Körpergewicht der Präparate oral behandelt.
Uhbehandelte Tiere starben 3 bis 6 Tage post infektionem. Die Ueberlebensrate am 6.Tag post infektionem betrug bei uhbehandelten Kontrolltieren etwa 5 %.
• +++++ = sehr gute Wirkung = 90 % Ueberlebende am 6.Tag p.i. • ++++ = gute Wirkung = 80 % Ueberlebende am 6.Tag p.i. • +++ = Wirkung = 60 % Ueberlebende am 6.Tag p.i. • ++ = schwache Wirkung = 40 % Ueberlebende am 6.Tag p.i. • + = Spur Wirkung = k.W. = keine Wirkung

The subject of experiment [6] is Trichophyton mentagr. The experiment in a line: Antimycotic in-vitro activity, serial dilution test (MIC). The settings on record: Sabouraud medium, 20°C, 96 hours, inoculum 5 x 10^4 germs/ml; for MIC: Trichophyton, read-out: MHK-Werte in γ/ml Nährmedium, Trichophyton mentagr. Format: cell-based, Trichophyton mentagrophytes. The protocol:
as §1, §2

Experiment [7] concerns Aspergillus fumig. Described as above. It is filed as cell-based, Aspergillus fumigatus. The settings on record: Sabouraud medium, 20°C, inoculum 5 x 10^4 germs/ml; for MIC: Aspergillus, 96 h, read-out: MHK-Werte in γ/ml Nährmedium, Aspergillus fumig. The protocol: as §1, §2
Experiment [8] deals with Dermatophyten und Schimmelpilze, Hefen. Nature of the experiment: Antimycotic in-vitro activity, serial dilution test, overall comparison with known compounds. Format: cell-based. The settings on record: compared with known compounds (A),(B),(C) and (D). Here is the method:
as §1, §2

Where [9] appears, read: mice infected i.v. with 1 - 2 x 10^6 Candida cells, oral 50 - 100 mg/kg one hour before and seven hours after infection, survivors on day 6 p.i.
Where [10] appears, read: mouse candidosis, oral, compared with known compounds (A), (B), (C) and (D).

Each structure is given as a SMILES string. In brackets after ≈: the same amount, converted by molar mass.

Take `CCC(C(O)c1ccc(Oc2ccc(Cl)cc2)cc1)n1cncn1` (single isomer, unassigned) [Beispiel 30]: the “MHK-Werte in γ/ml Nährmedium, Candida albicans” value in experiment [1] is below 1 µg/mL. The “MHK-Werte in γ/ml Nährmedium, Torulopsis glabrata” value in experiment [2] was below 1 µg/mL. The “MHK-Werte in γ/ml Nährmedium, Microsporum canis” value in experiment [3] (96 hours) turned out to be 32 µg/mL. Also, the Wirkungen entry in experiment [4] was “bestimmte Wirkungen”. Moreover, the Wirkung entry is recorded as “++” in experiment [4], “+++ (Wirkung = 60 % Ueberlebende am 6.Tag p.i.)” in experiment [5] (setting [9]) and “bessere Wirkung” in experiment [5] (setting [10]). In addition, the “MHK-Werte in γ/ml Nährmedium, Trichophyton mentagr.” value in experiment [6] is below 1 µg/mL. The “MHK-Werte in γ/ml Nährmedium, Aspergillus fumig.” value in experiment [7] (96 hours) was above 64 µg/mL. Moreover, in experiment [8], the “antimykotische Wirkung” value is “bessere antimykotische Wirkung”.
Turning to `CCC(C(=O)c1ccc(Oc2ccc(Cl)cc2)cc1)n1ccnc1` (stereo not drawn) [Beispiel 24], the MIC in experiment [1] stood at 4 µg/mL (≈ 11.7 µM); in experiment [2], 8 µg/mL (≈ 23.5 µM); in experiment [3], 4 µg/mL (≈ 11.7 µM); in experiment [6], 4 µg/mL (≈ 11.7 µM); in experiment [7], 8 µg/mL (≈ 23.5 µM). The Wirkungen entry in experiment [4] is listed as “bestimmte Wirkungen”. The Wirkung result is reported as “+++” in experiment [4], “+++ (Wirkung = 60 % Ueberlebende am 6.Tag p.i.)” in experiment [5] (setting [9]) and “bessere Wirkung” in experiment [5] (setting [10]). In addition, the “antimykotische Wirkung” value in experiment [8] is listed as “bessere antimykotische Wirkung”.
Turning to `CC(C(O)c1ccc(Oc2ccc(Cl)cc2)cc1)n1cncn1` (stereo not drawn) [Beispiel 35], the MIC in experiment [1] is below 1 µg/mL; in experiment [2], 2 µg/mL (≈ 6.06 µM); in experiment [3], 8 µg/mL (≈ 24.3 µM); in experiment [6], below 1 µg/mL; in experiment [7], 32 µg/mL (≈ 97 µM). In experiment [4], the Wirkungen entry was “bestimmte Wirkungen”. Besides, the Wirkung result in experiment [4] was “+++”; in experiment [5] (setting [9]) it was “+++ (Wirkung = 60 % Ueberlebende am 6.Tag p.i.)”; in experiment [5] (setting [10]), “bessere Wirkung”. Further, in experiment [8], the “antimykotische Wirkung” value is on record as “bessere antimykotische Wirkung”.
For the compound `CCCC(n1cncn1)C(C)(O)c1ccc(Oc2ccc(Cl)cc2)cc1` (stereo not drawn) [Beispiel 43], the MIC was below 1 µg/mL in experiment [1]; 4 µg/mL (≈ 10.8 µM) in experiment [2]; 16 µg/mL (≈ 43 µM) in experiment [3]; below 1 µg/mL in experiment [6]; above 64 µg/mL in experiment [7]. Further, the Wirkungen result in experiment [4] is on record as “bestimmte Wirkungen”. The Wirkung entry is reported as “+++” in experiment [4], “+++++ (sehr gute Wirkung = 90 % Ueberlebende am 6.Tag p.i.)” in experiment [5] (setting [9]) and “bessere Wirkung” in experiment [5] (setting [10]). In experiment [8], the “antimykotische Wirkung” value is “bessere antimykotische Wirkung”.
For `CC(n1cncn1)C(O)(Cc1ccc(Cl)cc1)c1ccc(Oc2ccc(Cl)cc2)cc1` (stereo not drawn) [Beispiel 45], the MIC in experiment [1] is below 1 µg/mL; in experiment [2], below 1 µg/mL; in experiment [3] it was 32 µg/mL (≈ 70.4 µM); in experiment [6] it was 2 µg/mL (≈ 4.4 µM); in experiment [7], above 64 µg/mL. For the same compound, in experiment [4], the Wirkungen result is on record as “bestimmte Wirkungen”. The Wirkung entry in experiment [4] is on record as “+”; in experiment [5] (setting [9]), “+”; in experiment [5] (setting [10]), “bessere Wirkung”. Besides, in experiment [8], the “antimykotische Wirkung” value is “bessere antimykotische Wirkung”.
Take `C=CCC(O)(c1ccc(Oc2ccc(Cl)cc2)cc1)C(CCC)n1cncn1` (stereo not drawn) [Beispiel 46]: the MIC is below 1 µg/mL in experiment [1]; 8 µg/mL (≈ 20.1 µM) in experiment [2]; 8 µg/mL (≈ 20.1 µM) in experiment [3]; below 1 µg/mL in experiment [6]; 32 µg/mL (≈ 80.4 µM) in experiment [7]. Also, the values for the Wirkung result in experiment [4], in experiment [5] (setting [9]) and in experiment [5] (setting [10]) were “+”, “++++ (gute Wirkung = 80 % Ueberlebende am 6.Tag p.i.)” and “bessere Wirkung”, respectively. Further, in experiment [8], the “antimykotische Wirkung” value is reported as “bessere antimykotische Wirkung”.
Turning to `Cc1cccc(Cl)c1Oc1ccc(C(O)Cn2cncn2)cc1` (stereo not drawn) [Beispiel 47], the MIC in experiment [1] is below 1 µg/mL; in experiment [2], below 1 µg/mL; in experiment [3], 8 µg/mL (≈ 24.3 µM); in experiment [6], below 1 µg/mL; in experiment [7], 8 µg/mL (≈ 24.3 µM). For the same compound, the Wirkungen result in experiment [4] is listed as “bestimmte Wirkungen”. Moreover, the Wirkung result is recorded as “++++” in experiment [4], “++++ (gute Wirkung = 80 % Ueberlebende am 6.Tag p.i.)” in experiment [5] (setting [9]) and “bessere Wirkung” in experiment [5] (setting [10]). The “antimykotische Wirkung” value in experiment [8] is on record as “bessere antimykotische Wirkung”.
